# Data as given in paper PMC9120017, “Inhibition mechanism of the chloride channel TMEM16A by the pore blocker 1PBC” (Nature Communications, 2022).
# Where two headings read alike, the source gives them in different places.
# Target: T1, mouse TMEM16A mutant V543A (Mus musculus, UniProt Q8BHY3, V543A)
# T1 construct: expressed in transfected cells; host or cells: HEK293T
# T1 sequence (Q8BHY3 1-960 V543A): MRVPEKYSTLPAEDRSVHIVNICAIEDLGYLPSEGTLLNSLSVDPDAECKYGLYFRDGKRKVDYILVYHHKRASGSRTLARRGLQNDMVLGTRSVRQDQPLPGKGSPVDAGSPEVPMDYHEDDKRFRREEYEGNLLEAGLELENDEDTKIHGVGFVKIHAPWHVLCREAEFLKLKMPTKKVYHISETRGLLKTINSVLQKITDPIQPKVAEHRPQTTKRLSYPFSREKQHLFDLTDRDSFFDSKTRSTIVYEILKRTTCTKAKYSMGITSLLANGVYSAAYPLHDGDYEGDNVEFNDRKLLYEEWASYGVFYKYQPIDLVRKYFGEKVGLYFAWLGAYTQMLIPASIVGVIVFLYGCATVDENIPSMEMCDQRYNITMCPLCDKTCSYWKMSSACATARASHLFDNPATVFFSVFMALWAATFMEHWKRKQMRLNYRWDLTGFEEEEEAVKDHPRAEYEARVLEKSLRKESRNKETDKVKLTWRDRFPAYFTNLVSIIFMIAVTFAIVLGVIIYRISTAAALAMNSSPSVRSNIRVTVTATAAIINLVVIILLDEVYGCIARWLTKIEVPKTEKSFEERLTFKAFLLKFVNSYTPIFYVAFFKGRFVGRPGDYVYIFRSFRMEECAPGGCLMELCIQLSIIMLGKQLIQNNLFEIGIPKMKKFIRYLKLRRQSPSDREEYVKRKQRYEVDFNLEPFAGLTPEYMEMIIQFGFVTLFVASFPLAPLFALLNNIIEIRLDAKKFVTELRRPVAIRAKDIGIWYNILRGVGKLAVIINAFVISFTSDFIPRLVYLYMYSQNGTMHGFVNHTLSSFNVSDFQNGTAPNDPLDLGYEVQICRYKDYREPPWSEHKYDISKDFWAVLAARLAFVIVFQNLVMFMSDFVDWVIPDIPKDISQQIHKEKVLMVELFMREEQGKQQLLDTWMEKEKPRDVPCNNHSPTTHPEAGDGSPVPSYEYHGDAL
# Assay: Inside-out patch recording of 1PBC block, mutant V543A
# Format: cell-based
# Conditions: for remaining activity at 30 µM: 1PBC 30; for remaining activity at 30 µM / remaining activity at 100 µM: read-out: fraction of unblocked current; for remaining activity at 100 µM: 1PBC 100
# Description: HEK293T cells (ATCC CRL-1573) were maintained in Dulbecco’s modified Eagle’s medium (DMEM; Sigma-Aldrich) supplemented with 10 U ml^−1 penicillin, 0.1 mg ml^−1 streptomycin (Sigma-Aldrich), 2 mM L-glutamine (Sigma-Aldrich), and 10% FBS (Sigma-Aldrich) in a humidified atmosphere containing 5% CO2 at 37 °C. HEK293S GnTI^− cells (ATCC CRL-3022) were maintained in HyClone HyCell TransFx-H medium (GE Healthcare) supplemented with 10 U ml^−1 penicillin, 0.1 mg ml^−1 streptomycin, 4 mM L-glutamine, 0.15% poloxamer 188 (Sigma-Aldrich), and 1% FBS in an atmosphere containing 5% CO2 at 185 rpm at 37 °C. The ac splice variant of mouse TMEM16A (UniProt ID: Q8BHY3), mouse TMEM16B (UniProt ID: Q8CFW1), or mouse TMEM16F (UniProt ID: Q6P9J9) bearing a 3C cleavage site, a Venus YFP, a Myc tag, and a Streptavidin-binding peptide (SBP) downstream of the open reading frame in a modified pcDNA3.1 vector (Invitrogen) were used as described previously[21],[31]. Mutations were introduced using a modified QuikChange method[58] and were verified by sequencing.
# HEK293T cells were transfected with 3–4 μg DNA per 6 cm Petri dish using the calcium phosphate co-precipitation method and were used within 24–96 h after transfection. Recordings were performed on inside-out patches excised from HEK293T cells expressing the construct of interest. Patch pipettes were pulled from borosilicate glass capillaries (O.D. 1.5 mm, I.D. 0.86 mm, Sutter Instrument) and were fire-polished with a microforge (Narishige) before use. Pipette resistance was typically 3–8 MΩ when filled with the recording solutions detailed below. Seal resistance was typically 4 GΩ or higher. Voltage-clamp recordings were made using Axopatch 200B, Digidata 1550, and Clampex 10.7 (Molecular Devices). Analog signals were filtered with the in-built 4-pole Bessel filter at 10 kHz and were digitized at 20 kHz. Solution exchange was achieved using a gravity-fed system through a theta glass pipette mounted on an ultra-fast piezo-driven stepper (Siskiyou). […] All recordings were performed at 20 °C.
# A symmetrical ionic condition was used throughout. Stock solution with Ca^2+-EGTA contained 150 mM NaCl, 5.99 mM Ca(OH)2, 5 mM EGTA, and 10 mM HEPES at pH 7.40. Stock solution with EGTA contained 150 mM NaCl, 5 mM EGTA, and 10 mM HEPES at pH 7.40. Free Ca^2+ concentrations were adjusted by mixing the stock solutions at the required ratios calculated using the WEBMAXC program (http://web.stanford.edu/~cpatton/webmaxcS.htm). Patch pipettes were filled with the stock solution with Ca^2+-EGTA, which has a free Ca^2+ concentration of 1 mM. 1PBC (ChemBridge) stock was reconstituted in anhydrous DMSO (Sigma-Aldrich) at 100 mM and stored at −20 °C. Working solutions with 1PBC were prepared by serial dilution. Unless otherwise stated, experiments were performed at a saturating Ca^2+ concentration as shown in Supplementary Table 1 and the primary data were corrected for current rundown as described previously[21],[25].
# Concentration-response relations, obtained from the ratio of the I-V plots before and after the application of the blocker, were fitted to the Hill equation,1 I/Imax=1/1+IC50/[blocker]^h where I/Imax is the normalized current responses, IC50 defines the concentration at which inhibition is at its half-maximum, and h is the Hill coefficient.
smiles,measurement,setting,value
N#Cc1c(C(F)(F)F)cc(O)n2c1nc1ccccc12 [1PBC],remaining activity at 30 µM,-60 mV,39.5%
same,remaining activity at 30 µM,-80 mV,43.8%
same,remaining activity at 30 µM,-100 mV,47.1%
same,remaining activity at 30 µM,-120 mV,51.5%
same,remaining activity at 30 µM,-140 mV,54.7%
same,remaining activity at 100 µM,0 mV,9.46%
same,remaining activity at 100 µM,20 mV,7.3%
same,remaining activity at 100 µM,40 mV,6.78%
same,remaining activity at 100 µM,60 mV,6.85%
same,remaining activity at 100 µM,80 mV,6.35%
same,remaining activity at 100 µM,100 mV,6.17%
same,remaining activity at 100 µM,120 mV,6.44%
same,remaining activity at 100 µM,140 mV,6.48%
same,remaining activity at 100 µM,-20 mV,11.6%
same,remaining activity at 100 µM,-40 mV,13.7%
same,remaining activity at 100 µM,-60 mV,16%
same,remaining activity at 100 µM,-80 mV,18.7%
same,remaining activity at 100 µM,-100 mV,21.8%
same,remaining activity at 100 µM,-120 mV,25%
same,remaining activity at 100 µM,-140 mV,27.8%
same,IC50,"20 mV, 15 µM Ca2+",9.55 µM
same,IC50,"40 mV, 15 µM Ca2+",8.65 µM
same,IC50,"60 mV, 15 µM Ca2+",8.16 µM
same,log-fold IC50 (change of mutant vs WT),80 mV,0.6263
same,IC50,"80 mV, 15 µM Ca2+",8.02 µM
same,IC50,"100 mV, 15 µM Ca2+",8.37 µM
same,IC50,"120 mV, 15 µM Ca2+",8.93 µM
same,IC50,"140 mV, 15 µM Ca2+",9.55 µM
same,IC50,"-20 mV, 15 µM Ca2+",13.1 µM
same,IC50,"-40 mV, 15 µM Ca2+",15.6 µM
same,IC50,"-60 mV, 15 µM Ca2+",18.6 µM
same,IC50,"-80 mV, 15 µM Ca2+",22 µM
same,IC50,"-100 mV, 15 µM Ca2+",25.7 µM
same,IC50,"-120 mV, 15 µM Ca2+",30.4 µM
same,IC50,"-140 mV, 15 µM Ca2+",34.9 µM
same,IC50,"V543A, V 0 mV",11.2 µM
same,IC50,"V543A, V 20 mV",9.55 µM
same,IC50,"V543A, V 40 mV",8.65 µM
same,IC50,"V543A, V 60 mV",8.16 µM
same,IC50,"V543A, V 80 mV",8.02 µM
same,IC50,"V543A, V 100 mV",8.37 µM
same,IC50,"V543A, V 120 mV",8.93 µM
same,IC50,"V543A, V 140 mV",9.55 µM
same,IC50,"V543A, V -20 mV",13.1 µM
same,IC50,"V543A, V -40 mV",15.6 µM
same,IC50,"V543A, V -60 mV",18.6 µM
same,IC50,"V543A, V -80 mV",22 µM
same,IC50,"V543A, V -100 mV",25.7 µM
same,IC50,"V543A, V -120 mV",30.4 µM
same,IC50,"V543A, V -140 mV",34.9 µM
